Test results: patent US20050009840A1 (SUGEN, INC., priority 2003, published 2005)

Each compound was assayed against T1, HGFR (Homo sapiens, UniProt P08581) (assay: HGFR continuous-coupled spectrophotometric assay). Conditions: at 1 pM; Table 7, library procedure 42; read-out: % Inhibition (percent c-MET inhibition).
T1 construct: purchased Upstate 14-526
Assay type: biochemical

T1 sequence (P08581 974-1390 limits assumed): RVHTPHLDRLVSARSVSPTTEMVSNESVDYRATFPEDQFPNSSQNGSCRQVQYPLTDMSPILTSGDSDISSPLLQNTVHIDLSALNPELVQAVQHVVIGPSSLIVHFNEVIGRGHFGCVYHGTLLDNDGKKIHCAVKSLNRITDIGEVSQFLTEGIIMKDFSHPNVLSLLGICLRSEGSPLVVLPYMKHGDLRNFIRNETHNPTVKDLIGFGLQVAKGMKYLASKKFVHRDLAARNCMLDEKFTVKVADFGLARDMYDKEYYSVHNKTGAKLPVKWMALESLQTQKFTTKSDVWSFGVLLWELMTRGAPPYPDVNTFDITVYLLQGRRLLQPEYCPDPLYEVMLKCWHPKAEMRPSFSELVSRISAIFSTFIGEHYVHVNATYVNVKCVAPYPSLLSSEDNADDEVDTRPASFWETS

SMILES	inhibition at 1 pM
Nc1ncc(-c2ccc(C(=O)N3CCC(N4CCCC4)CC3)cc2)cc1OCc1ncc(C(F)(F)F)cc1Cl	8%
Nc1ncc(-c2ccc(C(=O)N3CCC(N4CCCC4)CC3)cc2)cc1OCc1csc2ccc(Cl)cc12	37%
Cc1noc(C)c1-c1nc(COc2cc(-c3ccc(C(=O)N4CCC(N5CCCC5)CC4)cc3)cnc2N)no1	6%
COc1ccccc1-c1nc(COc2cc(-c3ccc(C(=O)N4CCC(N5CCCC5)CC4)cc3)cnc2N)no1	8%
Nc1ncc(-c2ccc(C(=O)N3CCC(N4CCCC4)CC3)cc2)cc1OCc1csc(-c2ccc(Cl)cc2)n1	9%
Cc1nc(COc2cc(-c3ccc(C(=O)N4CCC(N5CCCC5)CC4)cc3)cnc2N)cs1	6%
CCOC(=O)CCNC(=O)c1cccc(COc2cc(-c3ccc(C(=O)N4CCC(N5CCCC5)CC4)cc3)cnc2N)c1	14%
Nc1ncc(-c2ccc(C(=O)N3CCC(N4CCCC4)CC3)cc2)cc1OCc1ccc(-c2ccnc(Br)n2)cc1	17%
Nc1ncc(-c2ccc(C(=O)N3CCC(N4CCCC4)CC3)cc2)cc1OCc1cscn1	12%
Nc1ncc(-c2ccc(C(=O)N3CCC(N4CCCC4)CC3)cc2)cc1OCc1ccc(-c2cnc(Br)nc2)cc1	33%
Nc1ncc(-c2ccc(C(=O)N3CCC(N4CCCC4)CC3)cc2)cc1OCc1cn2ccccc2n1	11%
CCOC(=O)CCNS(=O)(=O)c1ccc(COc2cc(-c3ccc(C(=O)N4CCC(N5CCCC5)CC4)cc3)cnc2N)cc1	15%
Nc1ncc(-c2ccc(C(=O)N3CCC(N4CCCC4)CC3)cc2)cc1OCc1ccc(C(=O)c2ccccc2)cc1	31%
Cc1nc2ccc(COc3cc(-c4ccc(C(=O)N5CCC(N6CCCC6)CC5)cc4)cnc3N)cc2c(=O)[nH]1	12%
Cc1nc2scc(COc3cc(-c4ccc(C(=O)N5CCC(N6CCCC6)CC5)cc4)cnc3N)c2c(=O)[nH]1	10%
Cn1c(COc2cc(-c3ccc(C(=O)N4CCC(N5CCCC5)CC4)cc3)cnc2N)nc2ccccc21	10%
Nc1ncc(-c2ccc(C(=O)N3CCC(N4CCCC4)CC3)cc2)cc1OCc1c(F)ccc(F)c1Cl	50%

SMILES	inhibition at 1 pM
Nc1ncc(-c2ccc(C(=O)N3CCC(N4CCCC4)CC3)cc2)cc1OCc1cccc(Br)c1	24%
Nc1ncc(-c2ccc(C(=O)N3CCC(N4CCCC4)CC3)cc2)cc1OCc1nc(N)c2ccccc2n1	15%
Nc1ncc(-c2ccc(C(=O)N3CCC(N4CCCC4)CC3)cc2)cc1OCc1ccccn1	16%
Cc1onc(-c2ccccc2)c1COc1cc(-c2ccc(C(=O)N3CCC(N4CCCC4)CC3)cc2)cnc1N	19%
Nc1ncc(-c2ccc(C(=O)N3CCC(N4CCCC4)CC3)cc2)cc1OCc1cn2cccnc2n1	16%
Nc1ncc(-c2ccc(C(=O)N3CCC(N4CCCC4)CC3)cc2)cc1OCc1nc2ccccc2s1	17%
Cc1ccc(-c2nnc(COc3cc(-c4ccc(C(=O)N5CCC(N6CCCC6)CC5)cc4)cnc3N)o2)cc1	18%
Nc1ncc(-c2ccc(C(=O)N3CCC(N4CCCC4)CC3)cc2)cc1OCc1ccc2ccc(Cl)cc2n1	24%
Nc1ncc(-c2ccc(C(=O)N3CCC(N4CCCC4)CC3)cc2)cc1OCc1nc2ncc(Cl)cc2[nH]1	16%
Nc1ncc(-c2ccc(C(=O)N3CCC(N4CCCC4)CC3)cc2)cc1OCc1nc2cccnc2[nH]1	17%
Nc1ncc(-c2ccc(C(=O)N3CCC(N4CCCC4)CC3)cc2)cc1OCc1nc2ncccc2o1	17%
COc1ccnc(COc2cc(-c3ccc(C(=O)N4CCC(N5CCCC5)CC4)cc3)cnc2N)c1OC	23%
Cc1ccn2cc(COc3cc(-c4ccc(C(=O)N5CCC(N6CCCC6)CC5)cc4)cnc3N)nc2c1	16%
Cc1cc(C)nc(COc2cc(-c3ccc(C(=O)N4CCC(N5CCCC5)CC4)cc3)cnc2N)n1	16%
Cc1oc(-c2cccc(F)c2)nc1COc1cc(-c2ccc(C(=O)N3CCC(N4CCCC4)CC3)cc2)cnc1N	8%
Cn1nc(C(F)(F)F)c2cc(COc3cc(-c4ccc(C(=O)N5CCC(N6CCCC6)CC5)cc4)cnc3N)sc21	14%
Nc1ncc(-c2ccc(C(=O)N3CCC(N4CCCC4)CC3)cc2)cc1OCc1cnc(N)c(N)n1	9%

The remaining lines, values ahead:

inhibition at 1 pM	SMILES
24%	Nc1ncc(-c2ccc(C(=O)N3CCC(N4CCCC4)CC3)cc2)cc1OCc1cc(F)ccc1F
36%	CC(C)(C)c1ccc(-c2noc(COc3cc(-c4ccc(C(=O)N5CCC(N6CCCC6)CC5)cc4)cnc3N)n2)cc1
27%	Nc1ncc(-c2ccc(C(=O)N3CCC(N4CCCC4)CC3)cc2)cc1OCc1noc(-c2cccc(C(F)(F)F)c2)n1
15%	COC(=O)c1ccc(COc2cc(-c3ccc(C(=O)N4CCC(N5CCCC5)CC4)cc3)cnc2N)c(OC)c1
15%	Nc1ncc(-c2ccc(C(=O)N3CCC(N4CCCC4)CC3)cc2)cc1OCc1ccc(S(=O)(=O)Nc2ccc(F)cc2)cc1
15%	Nc1ncc(-c2ccc(C(=O)N3CCC(N4CCCC4)CC3)cc2)cc1OCc1cccc(CO)n1
13%	Nc1ncc(-c2ccc(C(=O)N3CCC(N4CCCC4)CC3)cc2)cc1OCc1cccc(-c2ccnc(Br)n2)c1
13%	Nc1ncc(-c2ccc(C(=O)N3CCC(N4CCCC4)CC3)cc2)cc1OCc1ccc(C(F)(F)F)nc1
17%	COc1cc(COc2cc(-c3ccc(C(=O)N4CCC(N5CCCC5)CC4)cc3)cnc2N)cc(OC)c1
23%	COc1cccc(COc2cc(-c3ccc(C(=O)N4CCC(N5CCCC5)CC4)cc3)cnc2N)c1OC
22%	Cc1cc(-c2onc(C)c2COc2cc(-c3ccc(C(=O)N4CCC(N5CCCC5)CC4)cc3)cnc2N)no1
14%	Nc1ncc(-c2ccc(C(=O)N3CCC(N4CCCC4)CC3)cc2)cc1OCc1ccc(S(=O)(=O)N2CCOCC2)cc1
18%	COCOc1ccc(S(=O)(=O)c2ccc(COc3cc(-c4ccc(C(=O)N5CCC(N6CCCC6)CC5)cc4)cnc3N)cc2)cc1
13%	COc1ccc2sc(COc3cc(-c4ccc(C(=O)N5CCC(N6CCCC6)CC5)cc4)cnc3N)cc2c1
13%	Nc1ncc(-c2ccc(C(=O)N3CCC(N4CCCC4)CC3)cc2)cc1OCc1ccc(S(=O)(=O)c2ccc(F)cc2)cc1
9%	Nc1ncc(-c2ccc(C(=O)N3CCC(N4CCCC4)CC3)cc2)cc1OCc1cncc2ccccc12
9%	Nc1ncc(-c2ccc(C(=O)N3CCC(N4CCCC4)CC3)cc2)cc1OCc1nc(-c2ccccn2)no1
39%	Cc1ccc(COc2cc(-c3ccc(C(=O)N4CCC(N5CCCC5)CC4)cc3)cnc2N)c(F)c1F
51%	Cc1ccc(F)c(COc2cc(-c3ccc(C(=O)N4CCC(N5CCCC5)CC4)cc3)cnc2N)c1F
27%	Cc1cc(COc2cc(-c3ccc(C(=O)N4CCC(N5CCCC5)CC4)cc3)cnc2N)ccc1F
29%	Cc1ccc(F)cc1COc1cc(-c2ccc(C(=O)N3CCC(N4CCCC4)CC3)cc2)cnc1N
17%	Nc1ncc(-c2ccc(C(=O)N3CCC(N4CCCC4)CC3)cc2)cc1OCc1cccnc1
20%	COc1c(C)cnc(COc2cc(-c3ccc(C(=O)N4CCC(N5CCCC5)CC4)cc3)cnc2N)c1C

inhibition at 1 pM	SMILES
18%	Cc1cc(C)n2nc(COc3cc(-c4ccc(C(=O)N5CCC(N6CCCC6)CC5)cc4)cnc3N)nc2n1
22%	Nc1ncc(-c2ccc(C(=O)N3CCC(N4CCCC4)CC3)cc2)cc1OCc1cccc2cccnc12
63%	Cn1nc(-c2ccccc2)c(COc2cc(-c3ccc(C(=O)N4CCC(N5CCCC5)CC4)cc3)cnc2N)c1Cl
23%	Nc1ncc(-c2ccc(C(=O)N3CCC(N4CCCC4)CC3)cc2)cc1OCc1cc(-c2ccccc2)no1
16%	Cc1cc(COc2cc(-c3ccc(C(=O)N4CCC(N5CCCC5)CC4)cc3)cnc2N)no1
18%	COC(=O)Nc1cc(COc2cc(-c3ccc(C(=O)N4CCC(N5CCCC5)CC4)cc3)cnc2N)on1
14%	Cn1ccnc1COc1cc(-c2ccc(C(=O)N3CCC(N4CCCC4)CC3)cc2)cnc1N
14%	Cc1nc(COc2cc(-c3ccc(C(=O)N4CCC(N5CCCC5)CC4)cc3)cnc2N)n(C)n1
34%	Nc1ncc(-c2ccc(C(=O)N3CCC(N4CCCC4)CC3)cc2)cc1OCc1nc2cc(C(F)(F)F)ccc2s1
19%	Cc1oc(-c2ccccc2)nc1COc1cc(-c2ccc(C(=O)N3CCC(N4CCCC4)CC3)cc2)cnc1N
18%	Cc1cc(=O)n2nc(COc3cc(-c4ccc(C(=O)N5CCC(N6CCCC6)CC5)cc4)cnc3N)nc2[nH]1
19%	Nc1ncc(-c2ccc(C(=O)N3CCC(N4CCCC4)CC3)cc2)cc1OCc1nnnn1Cc1ccccc1
20%	COc1cc(OC)nc(COc2cc(-c3ccc(C(=O)N4CCC(N5CCCC5)CC4)cc3)cnc2N)n1
12%	Cc1[nH]cnc1COc1cc(-c2ccc(C(=O)N3CCC(N4CCCC4)CC3)cc2)cnc1N
16%	CCCCc1nc(COc2cc(-c3ccc(C(=O)N4CCC(N5CCCC5)CC4)cc3)cnc2N)c[nH]1
16%	Nc1ncc(-c2ccc(C(=O)N3CCC(N4CCCC4)CC3)cc2)cc1OCc1cn2cc(Cl)ccc2n1
16%	Cc1cccnc1COc1cc(-c2ccc(C(=O)N3CCC(N4CCCC4)CC3)cc2)cnc1N
17%	Cc1oc(-c2ccc(F)cc2)nc1COc1cc(-c2ccc(C(=O)N3CCC(N4CCCC4)CC3)cc2)cnc1N
17%	Cc1cccc(COc2cc(-c3ccc(C(=O)N4CCC(N5CCCC5)CC4)cc3)cnc2N)n1
19%	COc1ccccc1-c1nc(COc2cc(-c3ccc(C(=O)N4CCC(N5CCCC5)CC4)cc3)cnc2N)c(C)o1
15%	CCc1ccc(COc2cc(-c3ccc(C(=O)N4CCC(N5CCCC5)CC4)cc3)cnc2N)nc1
23%	Nc1ncc(-c2ccc(C(=O)N3CCC(N4CCCC4)CC3)cc2)cc1OCc1cc(-c2ccc(Cl)cc2)no1
7%	Cn1nc(CC2CC2)nc1COc1cc(-c2ccc(C(=O)N3CCC(N4CCCC4)CC3)cc2)cnc1N
